Values of other authors, collected in paper PMC10017685 (Nature Communications, 2023).
Like-named read-outs stand apart in the source and are kept apart here.

Tested on: human erythrocytes
Parameters: method as in DBAASP
Conditions: cited from earlier work
[1] = toxicity class label 1 or 0, meaning of the labels not given, DBAASP HC50 data, human erythrocytes, ref DBAASP

| Sequence | Class (dedicated toxicity dataset used for toxicity classifier evaluation) [1] | Class (dedicated toxicity dataset used for toxicity classifier evaluation) |
| --- | --- | --- |
| GFKKLLKGAAKALVKTVLF [DBAASP_4900] | 1 | – |
| GFKRIVQKIRDFLRNLV [DBAASP_11852] | 0 | – |
| GFKRIVQRIKDFLRNLV [DBAASP_6070] | 0 | – |
| GFLGSLLKTGLKVGSNLL [DBAASP_2293] | 0 | – |
| GFMSKVANFAKKFAKGGVNAIMNQK [DBAASP_5718] | 0 | – |
| GFRDVLKGAAKAFVKTVAGHIAN [DBAASP_2304] | 0 | – |
| GFRKIVQKIRDFLRNLV [DBAASP_11853] | 0 | – |
| GFWGKLFKLGLHGIGLLHLHL [DBAASP_999] | 0 | – |
| GFWGKLWEGVKNAI [DBAASP_3479] | 1 | – |
| GIFDVLKNLAKGVITSLAS [DBAASP_16392] | 0 | – |
| GIGGALLSFGKSALKGLAKGLAEHF [DBAASP_12131] | 0 | – |
| GIGKFLHSAKKFGKAFVGEIMNS [DBAASP_5368] | 0 | – |
| GIGKFLKKAKKFGKAFVKILKK [DBAASP_763] | 0 | – |
| GIGKHVGKALKGLKGLLKGLGEC [DBAASP_6804] | 0 | – |
| GIGKHVGKALKGLKGLLKGLGES [DBAASP_3359] | 0 | – |
| GIIKKIIKKIIKK [DBAASP_13882] | 0 | – |
| GIIKKIIKKIIKKI [DBAASP_4594] | 0 | – |
| GIKDLLKGAAKALVKTVLF [DBAASP_11234] | 0 | – |
| GIKDLLKGAAKALVKTVLK [DBAASP_11236] | 0 | – |
| GIKDWIKGAAKKLIKTVASHIANQ [DBAASP_2305] | 0 | – |
| GIKEFAHSLGKFGKAFVGGILNQ [DBAASP_3817] | 0 | – |
| GIKKWVKGVAKGVAKDLAKKIL [DBAASP_11866] | 0 | – |
| GILGKLWEGVKSIF [DBAASP_8864] | 0 | – |
| GILKSLLKKLKKIIAK [DBAASP_8908] | – | 0 |

| Sequence | Class (dedicated toxicity dataset used for toxicity classifier evaluation) [1] | Class (dedicated toxicity dataset used for toxicity classifier evaluation) |
| --- | --- | --- |
| GILKTIKSIASKLKRKAK [DBAASP_5476] | 0 | – |
| GILNTIKSIASKLKRKAK [DBAASP_5477] | 0 | – |
| GILSKLLKKLKKIIAK [DBAASP_8909] | – | 0 |
| GILSSLLKKLKKIIAK [DBAASP_8905] | – | 0 |
| GILSSLLKKLKKWIAK [DBAASP_8917] | – | 0 |
| GILSSLLKKWKKIIAK [DBAASP_8916] | – | 0 |
| GILSSLWKKLKKIIAK [DBAASP_8913] | – | 0 |
| GILSSLWKKLKKWIAK [DBAASP_8918] | – | 0 |
| GILSSLWKKPKKIIAK [DBAASP_8919] | 0 | – |
| GILSSWLKKLKKIIAK [DBAASP_8912] | – | 0 |
| GIMISLMKKLAAHIAK [DBAASP_8898] | 0 | – |
| GIMSSLMKKLAAHIAK [DBAASP_8893] | 0 | – |
| GIMSSLMKKLAAHIKK [DBAASP_8896] | – | 0 |
| GIMSSLMKKLAAIIAK [DBAASP_8899] | 0 | – |
| GIMSSLMKKLAKHIAK [DBAASP_8895] | 0 | – |
| GIMSSLMKKLAKIIAK [DBAASP_8900] | 0 | – |
| GIMSSLMKKLAKIIKK [DBAASP_8903] | – | 0 |
| GIMSSLMKKLKAHIAK [DBAASP_8894] | 0 | – |
| GIMSSLMKKLKKHIAK [DBAASP_8897] | 0 | – |
| GIMSSLMKKLKKIIAK [DBAASP_8901] | – | 0 |
| GIMSSLMKKLKKIIKK [DBAASP_8904] | – | 0 |
| GIWDTIKSMGKVFAGAILQNL [DBAASP_700] | 1 | – |
| GIWDTIKSMGKVFAGKIKQNL [DBAASP_702] | 0 | – |
| GIWDTIKSMGKVFAGLILQNL [DBAASP_701] | 1 | – |

| Sequence | Class (dedicated toxicity dataset used for toxicity classifier evaluation) [1] | Class (dedicated toxicity dataset used for toxicity classifier evaluation) |
| --- | --- | --- |
| GIWKTIKSMGKVFAGAIKQNL [DBAASP_705] | 0 | – |
| GIWKTIKSMGKVFAGAILQNL [DBAASP_704] | 0 | – |
| GIWKTIKSMGKVFAGKIKQNL [DBAASP_703] | 0 | – |
| GIWKTIKSMGKVFAGKILQNL [DBAASP_699] | 0 | – |
| GIWSSLLKKLKKIIAK [DBAASP_8911] | 0 | – |
| GKLGPLLKIAAKVGSKLL [DBAASP_11238] | 0 | – |
| GKLGPLLKIAAKVGSNLL [DBAASP_11237] | 0 | – |
| GKLSSLWKKLKKIIAK [DBAASP_8915] | 0 | – |
| GKWKKILGKLIR [DBAASP_3277] | – | 0 |
| GLASTIGSLLGKFAKGGAQAFLQPK [DBAASP_2288] | 0 | – |
| GLFDIIKKIAESF [DBAASP_779] | 0 | – |
| GLFDIWAWWRWRR [DBAASP_10051] | 0 | – |
| GLFDIWKKLRWRR [DBAASP_10054] | 0 | – |
| GLFDIWKKWRWRR [DBAASP_10053] | 0 | – |
| GLFDIWKWWRWRR [DBAASP_10052] | 0 | – |
| GLFDKWAWWRWRR [DBAASP_10050] | 0 | – |
| GLFDVIKKLLKKIGGL [DBAASP_8593] | 1 | – |
| GLFDVIKKLLKKIKGL [DBAASP_8594] | 1 | – |
| GLFDVIKKVASVIGGL [DBAASP_1320] | 0 | – |
| GLFDVIKKVLKKIGGL [DBAASP_8592] | 1 | – |
| GLFGKILGVGKKVLCGLSGMC [DBAASP_2198] | 0 | – |
| GLGSVLGKALKIGANLL [DBAASP_3821] | 0 | – |
| GLKALKKVFKGIHKAIKLINKHVK [DBAASP_6932] | 0 | – |
| GLKALKKVFKGIHKAIKLINKHVQ [DBAASP_6931] | 0 | – |
